These results are taken from US20240174625A1, “COMPOSITIONS AND METHODS FOR TREATING TAUOPATHIES” (The Regents of the University of California, priority 2021, published 2024).

SMILES strings stand for the structures.

The test system of one data set is HEK293T cells. Kind of data set: Cell viability assay (CellTiter Glo). The format is cell-based, human. As to conditions: for IC50: Homo sapiens, HEK-293T, log10 transformed, IC50 = concentration that suppresses 50% cell viability, HEK293T cells; for Therapeutic index: ratio of IC50 (cell viability) over EC50 (NPEPPS activity). The procedure: HEK293T cells (AATC) were maintained in complete media and cell viability assay was conducted in a fresh-prepared minimal medium containing essential amino acids, vitamin, AlbuMax (Invitrogen 11021-029) in 1×HBS buffer. White 384-well assay plates (Greiner EK-30080) were coated with poly-L-ornithine (0.1 mg/ml) overnight and washed once with 1×PBS. 15 μl minimal medium was then added to each well. 250 nl of compounds dissolved in OmniSolve DMSO were pinned to each well via Biomek FX^P Liquid Handling Automation from compound source plates. Cells were harvested, resuspended in minimal medium, and seeded at 16,500 cells/15 μl/well in the 384-well assay plates. 24 hrs later, 25 μl/well CellTiter Glo reagent (Promega G7572) was added into each well, and luminescence (0.5 second integration time) was acquired following manufacture's protocol. Luminescence count normalized to DMSO control is used as a readout of cell viability.
(§1) To investigate the effects of JMM compounds that enhance NPEPPS activity and assess their cellular toxicity, 139 compounds in the JMM series (i.e., JMM001-JMM139) were tested in dose responses (20-step, 2-fold dilution) using NPEPPS activity and viability assays in HEK293T cells. 76 compounds harboring different modifications produce concentration-dependent enhancement on NPEPPS activity compared to DMSO control (FIG. 4). […] A therapeutic index (TI, a ratio of IC50 over EC50) is used to evaluate the relative safety profiles of the compounds. […] 16 JMM compounds show both improved potency and reduced toxicity (EC50<10 μM and TI>10, Table 1).
A general note: In ATP-based viability assays light output follows the ATP content of the culture.

The target of the next data set is T1, NPEPPS (Homo sapiens, UniProt P55786).
T1 construct: endogenous in cells; host or cells: HEK293T
Kind of data set: Cell-based NPEPPS activity assay (Q-AMC fluorescence). The following applies: log10 transformed; EC50 = concentration that elevates 50% NPEPPS activity (150% of DMSO baseline); HEK293T cells. The protocol:
HEK293T cells (AATC) were maintained in a complete media containing DMEM (Gibco 11995-065) in the presence of 10% fetal bovine serum (FBS, Gibco 10082147), […] penicillin and 50 μg/ml streptomycin (Gibco 15140163) at 37° C. with 5% CO2. NPEPPS activity assay was conducted in a fresh-prepared minimal medium containing essential amino acids, vitamin, AlbuMax (Invitrogen 11021-029) in 1×HBS buffer. Black wall, clear bottom 384-well assay plates (Greiner EK-30092) were coated with poly-L-ornithine (0.1 mg/ml, Sigma P3655) overnight and washed once with 1×PBS. 15 μl minimal medium was then added to each well. 250 nL of compounds dissolved in OmniSolve methylsulfoxide (dimethyl sulfoxide, DMSO, Sigma MX1456P) were pinned to each well via Biomek FX^P Liquid Handling Automation (Beckman Coulter) from compound source plates, i.e., either pre-made compound libraries or JMM compounds (20-step, 2-fold dilution) dissolved in OmniSolve DMSO prepared via Biomek automation in 384-well clear V-bottom polypropylene microplates (ThermoScientific 50-823-639). Cells were harvested, resuspended in minimal medium, and seeded at 16,500 cells/15 μl/well in the 384-well assay plates. 24 hrs later, 30 μl 200 μM H-Gln-AMC hydrobromide salt (Q-AMC, Bachem #I-1175) in 1×HBS containing 0.1% DMSO was added into each well. The fluorescent signal at excitation/emission wavelengths of 360/460 nm was measured immediately upon Q-AMC addition and 3 hrs post-Q-AMC. The change in fluorescence is measured as a readout of NPEPPS activity.
To identify small molecules that either increase NPEPPS levels or NPEPPS activity, a cell-based NPEPPS activity assay amenable to high-throughput screening (HTS) by adapting a fluorescent peptidase activity assay^2 was developed. Since NPEPPS is one of the only aminopeptidases capable of cleaving glutamine-peptide bonds^3 and the major aminopeptidase responsible for degradation of poly-glutamine sequences in the brain^4, a fluorogenic compound, glutamine-7-amino-4-methylcoumarin (Q-AMC), was selected as a substrate to measure NPEPPS activity. The peptide bond of Q-AMC is hydrolyzed by NPEPPS to release glutamine and a fluorescent product, 7-amino-4-methylcoumarin (AMC), when Q-AMC is added directly to the cell culture media. This change in fluorescence is measured as a readout of aminopeptidase activity (FIG. 2A). Overexpression of NPEPPS in HEK293T cells results in a significant increase in fluorescence, whereas knock-down or chemical inhibition of NPEPPS decrease fluorescence change (FIG. 2B-D), validating that the changes in fluorescence observed in the Q-AMC-based assay directly correlate with changes in NPEPPS activity. A high-throughput (HTS) screen (201,845 compounds) was conducted at the UCLA MSSR core (FIG. 2E). Follow-up assays and chemical clustering identified three series of compounds with distinct chemical clusters (FIG. 2F).
as §1

T1 sequence (P55786 whole entry): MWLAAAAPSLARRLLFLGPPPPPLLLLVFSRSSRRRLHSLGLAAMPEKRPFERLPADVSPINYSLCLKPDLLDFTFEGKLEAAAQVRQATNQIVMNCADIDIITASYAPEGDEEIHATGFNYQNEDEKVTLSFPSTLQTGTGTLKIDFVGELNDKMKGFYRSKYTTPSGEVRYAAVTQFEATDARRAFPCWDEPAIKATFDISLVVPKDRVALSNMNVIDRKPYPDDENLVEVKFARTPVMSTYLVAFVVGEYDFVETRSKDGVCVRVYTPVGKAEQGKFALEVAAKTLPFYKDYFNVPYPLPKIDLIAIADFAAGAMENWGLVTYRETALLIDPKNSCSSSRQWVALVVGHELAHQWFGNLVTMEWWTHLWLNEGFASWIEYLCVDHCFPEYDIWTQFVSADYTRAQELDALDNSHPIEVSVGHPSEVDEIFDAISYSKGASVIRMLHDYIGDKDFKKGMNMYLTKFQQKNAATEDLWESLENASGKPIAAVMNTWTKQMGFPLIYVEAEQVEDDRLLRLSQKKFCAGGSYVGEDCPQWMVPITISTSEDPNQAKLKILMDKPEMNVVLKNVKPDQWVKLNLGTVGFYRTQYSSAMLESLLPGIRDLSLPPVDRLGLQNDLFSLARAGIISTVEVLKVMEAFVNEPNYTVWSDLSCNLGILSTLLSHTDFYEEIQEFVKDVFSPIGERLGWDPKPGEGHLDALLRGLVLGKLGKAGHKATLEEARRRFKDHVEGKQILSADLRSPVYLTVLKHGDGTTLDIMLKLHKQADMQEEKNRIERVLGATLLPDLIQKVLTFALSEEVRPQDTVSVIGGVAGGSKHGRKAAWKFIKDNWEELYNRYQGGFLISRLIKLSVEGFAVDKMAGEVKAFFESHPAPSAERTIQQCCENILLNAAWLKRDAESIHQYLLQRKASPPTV

Turning to `FC(F)(F)c1ccc(COc2ccc(CNc3nsc4ccccc34)cc2)cc1` [JMM031], in the data set with HEK293T cells, the concentration for half-maximal inhibition (IC50) (commonly the point on the concentration scale where inhibition reaches its midpoint) is 77.6 µM and the Therapeutic index stood at 10.38. Further, on NPEPPS, the EC50 – broadly, the concentration that produces a half-maximal response – is 7.41 µM.
Consider `FC(F)(F)c1cccc(CNc2nsc3ccccc23)c1` [JMM032], for which, in the data set with HEK293T cells, the 50% inhibitory concentration (IC50) is 3090 µM and the Therapeutic index turned out to be 62.09. This molecule showed an EC50 on NPEPPS of 50.1 µM.
On the same counts, the results for `FC(F)(F)c1ccc(CNc2nccc3ccccc23)cc1` [JMM037] are 95.5 µM, 0.84 and 112 µM.
On to `FC(F)(F)c1ccc(CNc2n[nH]c3ccccc23)cc1` [JMM038], for which, in the data set on HEK293T cells, the midpoint of inhibition, the IC50, lay at 105 µM and the Therapeutic index is recorded as 1.06. This molecule gave a concentration giving a half-maximal response (EC50) on NPEPPS of 100 µM.
On the same counts, the results for `FC(F)(F)c1ccc(CNc2noc3ccccc23)cc1` [JMM039] are 61.7 µM, 3.03 and 20.4 µM.
For `COc1ccc(CNc2noc3ccccc23)cc1OC` [JMM040] the same measures were 251 µM, 1.00 and 251 µM.
On the same counts, the results for `COc1ccc(CNc2nsc3c(Br)cccc23)cc1OC` [JMM041] are 245 µM, 2.37 and 105 µM.
In the case of `COc1ccc(CNc2nsc3c(F)cccc23)cc1OC` [JMM042], in the data set on HEK293T cells, the IC50 was 58.9 µM and the Therapeutic index is given as 10.41. The same molecule gave an EC50 on NPEPPS of 5.75 µM.
As for `O=[N+]([O-])c1ccc(CNc2nsc3ccccc23)cc1` [JMM043], in the data set on HEK293T cells, the IC50 was 309 µM and the Therapeutic index was 3.79. The molecule also had an EC50 on NPEPPS of 81.3 µM.
Regarding `N#Cc1ccc(CNc2nsc3ccccc23)cc1` [JMM044], in the data set on HEK293T cells, the IC50 was 417 µM and the Therapeutic index came to 6.68. Further, the EC50 at NPEPPS was 63.1 µM.
On the same counts, the results for `Fc1ccc(NCc2ccc(C(F)(F)F)cc2)nc1` [JMM045] are 186 µM, 3.49 and 53.7 µM.
For `COc1ccc(CNc2ccc(F)cn2)cc1OC` [JMM046] the same measures were 479 µM, 2.24 and 214 µM.
Consider `COc1ccc(CNc2n[nH]c3ccccc23)cc1OC` [JMM047], for which, in the data set with HEK293T cells, the half-maximal inhibitory concentration (IC50) is 170 µM and the Therapeutic index is listed as 2.85. Besides, the midpoint of the response on NPEPPS, the EC50, lay at 60.3 µM.
`COc1ccc(CNc2ncccn2)cc1OC` [JMM048]: in the data set on HEK293T cells, half-maximal inhibition (IC50) was put at 562 µM and the Therapeutic index is reported as 1.09. This molecule showed a 50% effective concentration (EC50) at NPEPPS of 525 µM.
Regarding `FC(F)(F)c1ccc(CNc2ncccn2)cc1` [JMM049], in the data set with HEK293T cells, half-maximal inhibition (IC50) required 162 µM and the Therapeutic index is recorded as 2.93. Further, it took 56.2 µM to reach a half-maximal effect on NPEPPS (EC50).
In the case of `FC(F)(F)c1ccc(C(Nc2nsc3ccccc23)c2ccc(C(F)(F)F)cc2)cc1` [JMM051], in the data set with HEK293T cells, the IC50 was 14.1 µM and the Therapeutic index turned out to be 2.03. At NPEPPS, this molecule had a half-maximal effective concentration (EC50) of 7.08 µM.
On to `COc1ccc(C(Nc2nsc3ccccc23)c2ccc(OC)cc2)cc1` [JMM053], for which, in the data set on HEK293T cells, half-maximal inhibition (IC50) required 3390 µM and the Therapeutic index is recorded as 335.12. Further, the EC50 at NPEPPS was 10 µM.
On to `FC(F)(F)Oc1ccc(CNc2nsc3ccccc23)cc1` [JMM054], for which, in the data set with HEK293T cells, half-maximal inhibition (IC50) required 132 µM and the Therapeutic index is recorded as 1.08. On NPEPPS, this molecule gave an EC50 of 123 µM.
For `FC(F)(F)Oc1ccccc1CNc1nsc2ccccc12` [JMM055] the same measures were 126 µM, 2.43 and 52.5 µM.
For `Fc1cccc2c(NCc3ccccc3C(F)(F)F)nsc12` [JMM056] the same measures were 81.3 µM, 2.34 and 34.7 µM.
For `Fc1cccc2c(NC(c3ccccc3)c3ccccc3)nsc12` [JMM057] the same measures were 151 µM, 4.85 and 31.6 µM.
On to `c1ccc(CNc2nsc3ccccc23)nc1` [JMM058], for which, in the data set with HEK293T cells, the IC50 was 741 µM and the Therapeutic index was 7.17. Further, the 50% effective concentration (EC50) on NPEPPS is 105 µM.
On the same counts, the results for `FC(F)(F)c1ccc(CNc2nsc3ncccc23)cc1` [JMM059] are 120 µM, 1.78 and 67.6 µM.
In the case of `FC(F)(F)c1ccc(CNc2nsc3cccnc23)cc1` [JMM060], in the data set on HEK293T cells, half-maximal inhibition (IC50) was put at 102 µM and the Therapeutic index is 1.88. The molecule further showed an EC50 on NPEPPS of 53.7 µM.
In the case of `FC(F)(F)c1ccc(CNc2nsc3ccccc23)c(C(F)(F)F)c1` [JMM061], in the data set on HEK293T cells, the IC50 was 72.4 µM and the Therapeutic index turned out to be 6.85. Further, on NPEPPS, the EC50 is 10.5 µM.
For `FC(F)c1ccc(CNc2nsc3ccccc23)cc1` [JMM063] the same measures were 195 µM, 1.33 and 148 µM.
With `C#Cc1cccc2c(NCc3ccc(C(F)(F)F)cc3)nsc12` [JMM064], in the data set with HEK293T cells, inhibition was half-maximal at 69.2 µM (IC50) and the Therapeutic index was 2.30. At NPEPPS, this molecule had a concentration giving a half-maximal response (EC50) of 30.2 µM.
Take `FC(F)(F)c1ccc(CNc2nsc3cnccc23)cc1` [JMM065]: in the data set on HEK293T cells, the 50% inhibitory concentration (IC50) was 132 µM and the Therapeutic index came to 5.91. On NPEPPS, this molecule gave an EC50 of 22.4 µM.
On the same counts, the results for `FC(F)(F)c1ccc(CNc2nsc3ccc(OCc4ccccc4)cc23)cc1` [JMM066] are 174 µM, 27.03 and 6.46 µM.
For `COc1ccc(CN(C)c2nsc3ccccc23)cc1OC` [JMM068] the same measures were 132 µM, 2.22 and 58.9 µM.
On the same counts, the results for `COc1ccc(CN(Cc2ccc(C(F)(F)F)cc2)c2nsc3ccccc23)cc1OC` [JMM069] are 1510 µM, 84.99 and 17.8 µM.
With `N#Cc1cccc2c(NCc3ccc(C(F)(F)F)cc3)nsc12` [JMM070], in the data set with HEK293T cells, the midpoint of inhibition, the IC50, lay at 2630 µM and the Therapeutic index stood at 13.25. On NPEPPS, this molecule gave a 50% effective concentration (EC50) of 200 µM.
Take `FC(F)(F)c1ccc(CN(Cc2ccccc2)c2nsc3ccccc23)cc1` [JMM072]: in the data set on HEK293T cells, the IC50 was 155 µM and the Therapeutic index is on record as 11.52. The molecule also showed an EC50 on NPEPPS of 13.5 µM.
`Fc1ccccc1CNc1nsc2ccccc12` [JMM073]: in the data set on HEK293T cells, the IC50 was 316 µM and the Therapeutic index is reported as 2.30. Further, on NPEPPS, the EC50 is 138 µM.
For `CC(Nc1nsc2ccccc12)c1ccccc1` (stereo not drawn) [JMM075] the same measures were 132 µM, 0.65 and 200 µM.
Consider `Clc1ccc(C(Nc2nsc3ccccc23)c2ccc(Cl)cc2)cc1` [JMM076], for which, in the data set with HEK293T cells, half-maximal inhibition (IC50) required 20 µM and the Therapeutic index was determined as 2.03. At NPEPPS, a half-maximal response (EC50) required 9.77 µM.
